Source: patent US20260007756A1, “COMPOUND AND USE THEREOF” (COHERENT BIOPHARMA (SUZHOU) LIMITED, priority 2022, published 2026)

Legend:
[1] = tested on: human breast cancer MDA-MB-231 cell subcutaneous xenograft; experiment: Pharmacodynamic assessment, MDA-MB-231 xenograft model; type: in vivo; settings: 4 mg/kg iv biw×3
Source text: Objective: Pre-clinical pharmacodynamic study of test compounds CR20274, CR20282, and CR20285 in BALB/c nude mouse model with human breast cancer MDA-MB-231 cell subcutaneous xenograft.
Procedures: MDA-MB-231 tumor mass was grafted subcutaneously at the right axilla of the mice, and the mice were randomized after the mean tumor volume was 200 mm^3. After administration, the animals were monitored daily for health conditions and death, and the routine examinations included observation of the effect on tumor growth and the effect of the treatment on the daily performance of the animals, such as behavioral activities, food and water intake, weight changes (measured once every other day), appearance, or other abnormal conditions. Whether the tumor growth was inhibited or delayed or the tumor was cured was also observed. The tumor volume was measured periodically. The tumor volume was calculated using the following formula: V=1/2×(a×b^2), where a and b denote the long diameter and short diameter of the tumor, respectively. The calculation formula for the tumor growth inhibition, TGI (%), is TGI %=(1−T/C)×100% (T and C are the mean tumor volume of the treatment group and control group, respectively, at a particular time point).

[2] = Single-dose PK assessment, tumor concentration in HT-29 xenograft mice; type: in vivo, BALB/c nude male mouse; settings: 2 mg/kg CR20274 single tail vein injection
Procedure: Objective: Single-dose PK assessment of compounds CR20214 and CR20274 in BALB/c nude male mouse model with human colorectal cancer HT-29 cell subcutaneous xenograft.
Procedures: HT-29 cells were grafted subcutaneously on the right back of the mice (purchased from GemPharmatech Co., Ltd., weighing 20-25 g, male, aged 45-60 days), and the mice were randomized when the mean tumor volume reached about 300 mm^3. 6.25 mg/kg of CR20214 and 2 mg/kg of CR20274 were given to the HT-29 tumor-bearing mice in a single dose by tail vein injection. The tumors were taken at […], 0.25, 0.5, 1, 2, 4, 8, 24, 48 and 72 h post-dose, ground, and homogenized. The homogenate was extracted, and after centrifugation, the supernatants were injected into a triple quadrupole tandem mass spectrometer to determine the CR20274 content in the tumors.

CC[C@@H]1C(=O)N(C)c2cnc(Nc3ccc(-c4cn([C@H]5CC[C@@H](NCCOCCC#Cc6cccc7c6CN(C6CCC(=O)NC6=O)C7=O)CC5)nn4)cc3OC)nc2N1C1CCCC1 (stereo partly shown) [CR20274]
Anti-tumor effect [1]: no anti-tumor effect | Concentration of CR20274 in tumors (C2) ([2]; 0.25 h): 0.206 nmol/g | Concentration of CR20274 in tumors (C2) ([2]; 0.5 h): 0.222 nmol/g | Concentration of CR20274 in tumors (C2) ([2]; 1 h): 0.191 nmol/g | Concentration of CR20274 in tumors (C2) ([2]; 2 h): 0.180 nmol/g | Concentration of CR20274 in tumors (C2) ([2]; 4 h): 0.164 nmol/g | Concentration of CR20274 in tumors (C2) ([2]; 8 h): 0.154 nmol/g | Concentration of CR20274 in tumors (C2) ([2]; 24 h): 0.104 nmol/g | Concentration of CR20274 in tumors (C2) ([2]; 48 h): 0.064 nmol/g | Concentration of CR20274 in tumors (C2) ([2]; 72 h): 0.044 nmol/g
